We go through one compound from ChEMBL document CHEMBL1201862, “PubChem BioAssay data set” (2004).

As usually defined, the EC50 is the midpoint of the concentration-response curve. Usually AC50 stands for the midpoint of the concentration-response curve, whichever way the signal moves. In general, CC50 refers to the concentration that lowers cell viability or growth by half. As usually defined, the IC50 is the concentration that inhibits the measured activity by half.

The source made the active and inactive calls.

A short description of assay [1]: NIH-3T3 fibroblast cytotoxicity, dose response, cytotoxicity control, cell-based, fluorescence, Alamar Blue, secondary assay (AID 2327).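 Note: NIH-3T3 mouse fibroblasts cultured with fluconazole at 8 µg/mL.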 In kind it is functional. (Alamar Blue is a resazurin reagent that responds to reducing activity.)
The nature of assay [2]: cells. Type of assay: functional, cell-based.
Assay [3] can be described thus: C. albicans growth with fluconazole, confirmation, fluorescence, retest (AID 2467). Type of assay: functional, cell-based.
Assay [4] is described as follows: cells. In kind it is functional, cell-based. This is another data set of the same source.
Assay [5] can be described thus: Luminescence Cell-Based Dose Retest to Confirm Inhibitors of Cancer Stem Cells. [Related pubchem assays (depositor defined):AID2717, AID2721]. Type of assay: functional. Particulars: Homo sapiens.
The target of assay [6] is Cyclin-dependent kinase 5/CDK5 activator 1 (Homo sapiens, UniProt Q00535). The assay can be described thus: CDK5/p35 kinase inhibitors, dose response, biochemical, cherry-picked samples, set 2 (AID 504545).
Assay [7] deals with T1, Replicative DNA helicase DnaB (Mycobacterium tuberculosis, UniProt P9WMR3).
T1 sequence (P9WMR3 whole entry): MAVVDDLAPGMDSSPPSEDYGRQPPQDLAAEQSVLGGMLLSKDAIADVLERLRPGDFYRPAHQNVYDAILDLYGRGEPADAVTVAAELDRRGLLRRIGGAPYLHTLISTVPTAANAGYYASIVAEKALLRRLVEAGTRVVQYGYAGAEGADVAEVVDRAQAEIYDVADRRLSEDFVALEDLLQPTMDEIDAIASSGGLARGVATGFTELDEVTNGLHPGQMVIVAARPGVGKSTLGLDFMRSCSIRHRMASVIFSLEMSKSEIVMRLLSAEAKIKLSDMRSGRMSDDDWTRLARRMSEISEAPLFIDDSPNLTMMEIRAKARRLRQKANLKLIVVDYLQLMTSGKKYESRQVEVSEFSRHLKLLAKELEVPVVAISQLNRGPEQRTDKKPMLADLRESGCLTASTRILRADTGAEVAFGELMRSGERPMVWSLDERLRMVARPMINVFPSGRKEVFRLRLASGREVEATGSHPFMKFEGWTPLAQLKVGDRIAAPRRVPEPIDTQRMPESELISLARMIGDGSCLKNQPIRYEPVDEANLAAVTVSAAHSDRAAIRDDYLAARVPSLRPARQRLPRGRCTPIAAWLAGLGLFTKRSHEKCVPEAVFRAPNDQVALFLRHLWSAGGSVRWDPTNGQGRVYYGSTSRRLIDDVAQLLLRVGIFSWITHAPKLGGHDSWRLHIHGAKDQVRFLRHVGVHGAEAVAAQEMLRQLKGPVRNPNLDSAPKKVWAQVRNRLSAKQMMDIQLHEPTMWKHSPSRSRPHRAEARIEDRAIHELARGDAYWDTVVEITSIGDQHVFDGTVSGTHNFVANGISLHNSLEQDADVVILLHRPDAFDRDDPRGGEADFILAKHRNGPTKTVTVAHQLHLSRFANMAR
The assay can be described thus: DnaB intein splicing inhibitors, dose response, biochemical, cell-free fluorescence (AID 449749). Type of assay: functional.

A further assay deals with T2, Protein RecA (Mycobacterium tuberculosis, UniProt P9WHJ3).
T2 sequence (P9WHJ3 whole entry): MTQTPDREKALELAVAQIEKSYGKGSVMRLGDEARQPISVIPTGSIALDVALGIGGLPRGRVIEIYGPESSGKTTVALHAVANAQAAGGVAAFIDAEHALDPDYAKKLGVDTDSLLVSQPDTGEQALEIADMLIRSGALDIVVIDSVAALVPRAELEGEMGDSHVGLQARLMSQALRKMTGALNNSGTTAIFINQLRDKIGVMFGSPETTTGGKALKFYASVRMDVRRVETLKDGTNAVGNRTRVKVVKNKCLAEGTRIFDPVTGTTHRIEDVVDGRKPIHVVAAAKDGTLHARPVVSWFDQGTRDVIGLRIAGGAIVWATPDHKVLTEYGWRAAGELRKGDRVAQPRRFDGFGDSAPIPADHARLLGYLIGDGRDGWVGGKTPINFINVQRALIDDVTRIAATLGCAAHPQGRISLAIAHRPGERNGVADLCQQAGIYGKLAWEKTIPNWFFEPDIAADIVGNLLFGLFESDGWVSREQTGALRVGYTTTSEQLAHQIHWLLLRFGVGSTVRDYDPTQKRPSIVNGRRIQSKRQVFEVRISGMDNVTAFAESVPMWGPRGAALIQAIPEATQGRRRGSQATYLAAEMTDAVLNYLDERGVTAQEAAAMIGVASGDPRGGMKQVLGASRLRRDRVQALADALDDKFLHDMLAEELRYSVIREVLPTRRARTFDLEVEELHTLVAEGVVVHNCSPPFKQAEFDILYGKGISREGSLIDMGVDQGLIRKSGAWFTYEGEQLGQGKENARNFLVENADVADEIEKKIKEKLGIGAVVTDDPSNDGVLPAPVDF
Kind of assay: Fluorescence Cell-Free Homogeneous Dose Retest to Identify Inhibitors of RecA-Intein Splicing Activity. [Related pubchem assays (depositor defined):AID2097, AID2223, AID489010, AID492950]. Type of assay: functional.

Assay [8] concerns the target Dual specificity tyrosine-phosphorylation-regulated kinase 1A (Rattus norvegicus, UniProt Q63470). In kind it is biochemical, Homo sapiens.
The nature of assay [9]: HeLa cell cytotoxicity, dose response, cytotoxicity control for MgcRacGAP inhibitor project (AID 624300). In kind it is functional.
For assay [10], the target named is T3, Rac GTPase-activating protein 1 (Homo sapiens, UniProt Q9H0H5).
T3 sequence (Q9H0H5 whole entry): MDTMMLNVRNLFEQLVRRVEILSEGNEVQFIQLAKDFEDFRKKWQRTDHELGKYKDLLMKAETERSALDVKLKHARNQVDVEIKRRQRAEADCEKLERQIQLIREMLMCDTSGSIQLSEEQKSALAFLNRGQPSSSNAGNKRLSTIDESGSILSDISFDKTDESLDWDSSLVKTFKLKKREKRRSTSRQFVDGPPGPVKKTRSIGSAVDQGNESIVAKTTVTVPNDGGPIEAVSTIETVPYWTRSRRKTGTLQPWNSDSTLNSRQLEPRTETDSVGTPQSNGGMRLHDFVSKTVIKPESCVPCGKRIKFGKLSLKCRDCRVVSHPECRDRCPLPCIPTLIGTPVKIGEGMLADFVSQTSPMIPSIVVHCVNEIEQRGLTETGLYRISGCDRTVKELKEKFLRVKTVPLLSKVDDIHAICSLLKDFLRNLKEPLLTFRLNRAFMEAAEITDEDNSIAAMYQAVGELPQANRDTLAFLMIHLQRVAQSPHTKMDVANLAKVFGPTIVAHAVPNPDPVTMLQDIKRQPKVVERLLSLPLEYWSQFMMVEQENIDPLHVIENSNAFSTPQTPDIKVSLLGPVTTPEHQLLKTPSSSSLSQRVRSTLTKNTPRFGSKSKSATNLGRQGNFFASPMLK
The assay can be described thus: MgcRacGAP GTPase-activating activity inhibitors, confirmation, biochemical, ADP Hunter fluorescence, primary and confirmatory (AID 624330). In kind it is functional.

Chain of Cyclin-dependent kinase 5/CDK5 activator 1 (Q00535 whole entry): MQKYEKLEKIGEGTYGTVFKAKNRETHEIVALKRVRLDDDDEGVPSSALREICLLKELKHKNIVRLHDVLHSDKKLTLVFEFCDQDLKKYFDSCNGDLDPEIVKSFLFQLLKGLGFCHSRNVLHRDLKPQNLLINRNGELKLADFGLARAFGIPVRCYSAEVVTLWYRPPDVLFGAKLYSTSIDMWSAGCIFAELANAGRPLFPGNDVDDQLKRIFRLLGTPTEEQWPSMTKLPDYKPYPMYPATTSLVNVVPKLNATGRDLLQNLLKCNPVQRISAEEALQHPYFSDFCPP
Chain of Cyclin-dependent kinase 5/CDK5 activator 1 (Q15078 whole entry, further chain): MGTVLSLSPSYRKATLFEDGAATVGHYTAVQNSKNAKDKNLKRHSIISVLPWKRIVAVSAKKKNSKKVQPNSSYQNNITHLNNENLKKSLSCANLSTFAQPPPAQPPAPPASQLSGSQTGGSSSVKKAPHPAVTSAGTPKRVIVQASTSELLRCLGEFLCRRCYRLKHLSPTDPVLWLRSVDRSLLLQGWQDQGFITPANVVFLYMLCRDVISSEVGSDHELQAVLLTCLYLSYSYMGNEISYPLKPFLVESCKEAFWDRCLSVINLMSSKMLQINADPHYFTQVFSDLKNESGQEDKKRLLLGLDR

As for `Oc1ccc(/C=N/Nc2ccc(C(F)(F)F)cn2)c(O)c1`, the EC50 in assay [1] is > 150 µM (inactive); in “cells [2]”, 27.7 µM (active); in [3], > 38 µM (not active); in the assay “cells [4]”, 44.7 µM (active); on Protein RecA, 110 µM (inconclusive). Also, the AC50 in [5] is 8.01 µM (active); in [6] it was 11.8 µM (active); in [7] it was 81.4 µM (active); in [8], 5.23 µM (active). Further, the CC50 in assay [9] is 100 µM (active). The IC50 in [10] is 37 µM (active).
